# Experimental data as given in US20070260088A1, “Calcium Trifluoroacetate for Preparing Antiangiogenetic Medicaments” (priority 2004, published 2007).
# Columns and labels:
# tumor growth = settings: disclosed in EP 1 423 131; cited from earlier work
# solid tumor cells = settings: disclosed in EP 1 423 131; cited from earlier work
# [1] = system: VEGF-induced angiogenesis in Matrigel plugs; experiment: murine model of angiogenesis induced by subcutaneous implant of Matrigel containing VEGF; assay type: in vivo, mouse; settings: for reduction in angiogenesis (morphometric analysis, percentage of area covered by vessels): VEGF 40 ng/ml in Matrigel, plugs removed after 7 days, vs VEGF alone
# Procedure: The effect of calcium trifluoroacetate in angiogenesis was evidenced in a murine model of angiogenesis induced by a subcutaneous implant of Matrigel. Matrigel is liquid at 4° C. and solid at 37° C., so that a pro-angiogenetic stimulus can be mixed with Matrigel and inoculated. In this protocol, the selected angiogenetic factor was […], added to the Matrigel together with 16 U/ml heparin, as described in literature (Bussolati B, Altered angiogenesis and survival in human tumor-derived endothelial cells. FASEB J. 2003; Bussolati B, Vascular endothelial growth factor receptor-1 modulates vascular endothelial growth factor-mediated angiogenesis via nitric oxide. Am J Pathol. 2001).
# Calcium trifluoroacetate was administered intraperitoneally 30 minutes before Matrigel, then on alternate days (day 2, 4, 6), at a dose of 2 or 4 μg/mouse (0.2 mg/Kg). After 7 days, the animals were killed and the Matrigel plugs were removed for histological examination. Angiogenesis was evaluated by computer assisted morphometric analysis of the percentage of area covered by vessels.
# This strong antiangiogenic effect could already be observed macroscopically and confirmed histologically.
# endothelial cells = experiment: effect of endothelial growth factors on calcium entrance into single endothelial cells; assay type: cell-based
# [2] = system: endothelium proliferation; experiment: endothelium proliferation; assay type: cell-based
smiles,measurement,setting,value
O=C([O-])C(F)(F)F.O=C([O-])C(F)(F)F.[Ca+2] [calcium trifluoroacetate],tumor growth in animal experimental models,tumor growth,inhibit tumor growth
same,in vitro cytotoxic activity on solid tumor cells,solid tumor cells,cytotoxic activity
same,"reduction in angiogenesis (morphometric analysis, percentage of area covered by vessels)",[1]; 2 μg/mouse intraperitoneally on alternate days,above 40%
same,"reduction in angiogenesis (morphometric analysis, percentage of area covered by vessels)",[1]; 4 μg/mouse intraperitoneally on alternate days,80%
same,effect of VEGF on angiogenesis in Matrigel plugs (macroscopic and histological),"[1]; mice treated with calcium trifluoroacetate, VEGF 40 ng/ml",dramatically reduced
same,effect of endothelial growth factors on calcium entrance into single endothelial cells,endothelial cells,"able to block, at least partly"
same,action on endothelium proliferation,[2],evident inhibitory action
